The values below come from US9961899B2, “Nematicidal aqueous suspension concentrate compositions” (Monsanto Technology LLC, priority 2012, dated 2018).

Assay type in all cases: physicochemical
Data set [1] can be described thus: Grinding analysis of polymorphs (ball mill, XRD). The following applies: ball mill 2 minutes at 4800 oscillations per minute. The protocol:
Batches of 3-phenyl-5-(thiophen-2-yl)-1,2,4-oxadiazole polymorphic Forms I and II were ground using a CRESCENT WIG-L-BUG ball mill for 2 minutes at 4800 oscillations per minute (3.2 m/s) in two separate experiments. […] The Form II used in this experiment was obtained by recrystallization from the melt of Form I, as described in Example 14, above, […]

Data set [2] is described as follows: Mechanical pressure analysis of polymorphs (CARVER press, XRD). Conditions: approximately 15,000 psi for approximately 20 seconds. On the procedure:
Batches of 3-phenyl-5-(thiophen-2-yl)-1,2,4-oxadiazole polymorphic Forms I and II were placed in a CARVER press and compressed at approximately 15,000 psi for approximately 20 seconds in two separate experiments. XRD analysis was performed on the samples. The resulting XRD pattern matched the starting material in both experiments, as shown in FIGS. 5A and 5B for Forms I and II, respectively. […] The Form II used in this experiment was obtained by recrystallization from the melt of Form I, as described in Example 14, above.

The nature of data set [3]: Storage stability of polymorphs (humidity chambers / ambient, XRD). From the text: To determine the storage stability and/or hydrate formation of 3-phenyl-5-(thiophen-2-yl)-1,2,4-oxadiazole Form I material during storage at ambient conditions, samples were monitored in two static humidity chambers. […] Solutions of saturated potassium chloride (84% RH) and sodium chloride (75% RH) salts at ambient temperature were used.

Data set [4] is described as follows: Estimation of polymorph transition temperature from DSC data. The following applies: calculated from DSC thermal data. On the procedure:
Polymorphic Forms I and II of 3-phenyl-5-(thiophen-2-yl)-1,2,4-oxadiazole, as well as a 50/50 mixture thereof, were analyzed by DSC at a slow heating rate of 2° C. per minute, with similar sample sizes. […] Form II has a higher melting temperature and a lower enthalpy of fusion. […] FIGS. 9A through 9C show the relevant DSC thermograms for Form I, Form II, and a mixture of Forms I and II, respectively.
The thermal data using the procedure set forth above was used to calculate an approximate value for the transition temperature of conversion of Forms I and II, resulting in an estimated transition temperature value of 102° C.

The structures appear in SMILES notation.

Consider `c1ccc(-c2noc(-c3cccs3)n2)cc1` [Form I, 3-phenyl-5-(thiophen-2-yl)-1,2,4-oxadiazole], for which the “polymorphic transformation on grinding (XRD)” value in data set [1] is listed as “no transformation was observed”. The “polymorphic change under mechanical pressure (XRD)” value in data set [2] is listed as “did not reveal any changes in the polymorphic form”. Besides, the “storage stability / hydrate formation (XRD)” value in data set [3] (75 and 84% RH, ambient temperature, 4 weeks) is “does not form a hydrate and appears to be thermodynamically stable over time”.

Take `c1ccc(-c2noc(-c3cccs3)n2)cc1` [Ia-i, 3-phenyl-5-(thiophen-2-yl)-1,2,4-oxadiazole]: the “transition temperature between Forms I and II” value in data set [4] was “approximately 102 °C”.

On to `c1ccc(-c2noc(-c3cccs3)n2)cc1` [Form II, 3-phenyl-5-(thiophen-2-yl)-1,2,4-oxadiazole], for which the “polymorphic transformation on grinding (XRD)” value in data set [1] is on record as “transformed to Form I”. For the same molecule, the “polymorphic change under mechanical pressure (XRD)” value in data set [2] is “did not reveal any changes in the polymorphic form”. In data set [3] (scintillation vial, ambient conditions, approximately 6 days), the “storage stability (XRD)” value was “showed signs of transformation to Form I”.
